Experimental data taken from ChEMBL document CHEMBL4433196, “A novel delocalized lipophilic cation-chlorambucil conjugate inhibits P-glycoprotein in HepG2/ADM cells” (Bioorg Med Chem, 2017).
The source made the active and inactive calls. The calls are words filed in the database; no cut-off is given here.

How the values were obtained:
[1] = Induction of apoptosis in human HepG2/ADM cells assessed as viable cell at 20 uM incubated for 72 hrs by Annexin V-FITC/SYTOX Red staining based flow cytometric analysis (reference value: 94.4%); assay type: functional
[2] = Induction of apoptosis in human HepG2/ADM cells assessed as late apoptotic cells at 20 uM incubated for 72 hrs by Annexin V-FITC/SYTOX Red staining based flow cytometric analysis (Rvb =0.04%); assay type: functional
[3] = Induction of apoptosis in human HepG2/ADM cells assessed as necrotic cells at 20 uM incubated for 72 hrs in presence of ADM by Annexin V-FITC/SYTOX Red staining based flow cytometric analysis (Rvb =0.1%); assay type: functional
HepG2 = test: Cytotoxicity against human HepG2 cells assessed as cell growth inhibition incubated for 72 hrs by MTT assay; assay type: functional, cell-based; conditions: HepG2, 72 h
[4] = Induction of apoptosis in human HepG2/ADM cells assessed as viable cells at 20 uM incubated for 72 hrs in presence of ADM by Annexin V-FITC/SYTOX Red staining based flow cytometric analysis (reference value: 88.7%); assay type: functional; conditions: read-out: Activity
[5] = Induction of apoptosis in human HepG2/ADM cells assessed as early apoptotic cells at 20 uM incubated for 72 hrs in presence of ADM by Annexin V-FITC/SYTOX Red staining based flow cytometric analysis (reference value: 8.58%); assay type: functional
[6] = Induction of apoptosis in human HepG2/ADM cells assessed as necrotic cells at 20 uM incubated for 72 hrs by Annexin V-FITC/SYTOX Red staining based flow cytometric analysis (Rvb =0%); assay type: functional
NIH3T3 = test: Cytotoxicity against mouse NIH/3T3 cells assessed as cell growth inhibition incubated for 72 hrs by MTT assay; assay type: cell-based; conditions: NIH3T3, 72 h
L02 = test: Cytotoxicity against human L02 cells assessed as cell growth inhibition incubated for 72 hrs by MTT assay; assay type: cell-based; conditions: L02, 72 h
[7] = Induction of apoptosis in human HepG2/ADM cells assessed as early apoptotic cells at 20 uM incubated for 72 hrs by Annexin V-FITC/SYTOX Red staining based flow cytometric analysis (reference value: 5.52%); assay type: functional
[8] = Induction of apoptosis in human HepG2/ADM cells assessed as apoptotic cells at 20 uM incubated for 72 hrs in presence of ADM by Annexin V-FITC/SYTOX Red staining based flow cytometric analysis (reference value: 2.60%); assay type: functional
[9] = Cytotoxicity against human HepG2/ADM cells assessed as cell growth inhibition incubated for 72 hrs by MTT assay; assay type: functional, cell-based
[10] = Potency index, ratio of IC50 for human HepG2/ADM cells to IC50 for human HepG2 cells; assay type: functional
[11] = Drug localization in cellular membrane of human HepG2 cells at 20 uM incubated for 2 hrs by mitotracker 633 staining based inverted confocal microscope; assay type: ADME, cell membranes; conditions: hepg2, 2 h
[12] = Drug localization in mitochondria of human HepG2 cells at 20 uM incubated for 2 hrs by mitotracker 633 staining based inverted confocal microscope; assay type: ADME; conditions: hepg2, 2 h
[13] = Drug localization in mitochondria of human HepG2/ADM cells at 20 uM incubated for 2 hrs by mitotracker 633 staining based inverted confocal microscope; assay type: ADME
HepG2/Adm [14] = test: Downregulation of MDR1 mRNA in human HepG2/ADM cells at 5 to 20 uM incubated for 24 hrs by real time qPCR analysis; assay type: functional, cell-based
[15] = Drug accumulation in human HepG2 cells at 10 uM incubated for 3 hrs by flow cytometric analysis; assay type: ADME, cell-based; conditions: hepg2, 3 h
HepG2/Adm [16] = test: Downregulation of Pgp in human HepG2/ADM cells at 20 uM incubated for 48 hrs by flow cytometric analysis; assay type: functional, cell-based
[17] = Drug accumulation in human L02 cells at 10 uM incubated for 3 hrs by flow cytometric analysis; assay type: ADME, cell-based; conditions: l02, 3 h
[18] = biological target: T1, ATP-dependent translocase ABCB1 (Homo sapiens, UniProt P08183); test: Inhibition of Pgp in human HepG2/ADM cells assessed as increase in intracellular ADM level at 20 uM incubated for 12 hrs by flow cytometric analysis; assay type: cell-based
[19] = biological target: T1, ATP-dependent translocase ABCB1; test: Inhibition of Pgp in human HepG2/ADM cells at 20 uM incubated for 2 hrs by mitotracker 633 staining based inverted confocal microscopy; assay type: cell-based
HepG2/Adm [20] = test: Downregulation of Pgp in human HepG2/ADM cells at 5 to 20 uM incubated for 48 hrs by Western blot analysis; assay type: functional, cell-based
[21] = biological target: T1, ATP-dependent translocase ABCB1; test: Inhibition of Pgp in human HepG2/ADM cells assessed as increase in intracellular ADM level at 20 uM incubated for 2 hrs by mitotracker 633 staining based inverted confocal microscopic analysis; assay type: cell-based
[22] = Drug localization in cellular membrane of human HepG2/ADM cells at 20 uM incubated for 2 hrs by mitotracker 633 staining based inverted confocal microscope; assay type: ADME, cell membranes

T1 sequence (P08183 whole entry): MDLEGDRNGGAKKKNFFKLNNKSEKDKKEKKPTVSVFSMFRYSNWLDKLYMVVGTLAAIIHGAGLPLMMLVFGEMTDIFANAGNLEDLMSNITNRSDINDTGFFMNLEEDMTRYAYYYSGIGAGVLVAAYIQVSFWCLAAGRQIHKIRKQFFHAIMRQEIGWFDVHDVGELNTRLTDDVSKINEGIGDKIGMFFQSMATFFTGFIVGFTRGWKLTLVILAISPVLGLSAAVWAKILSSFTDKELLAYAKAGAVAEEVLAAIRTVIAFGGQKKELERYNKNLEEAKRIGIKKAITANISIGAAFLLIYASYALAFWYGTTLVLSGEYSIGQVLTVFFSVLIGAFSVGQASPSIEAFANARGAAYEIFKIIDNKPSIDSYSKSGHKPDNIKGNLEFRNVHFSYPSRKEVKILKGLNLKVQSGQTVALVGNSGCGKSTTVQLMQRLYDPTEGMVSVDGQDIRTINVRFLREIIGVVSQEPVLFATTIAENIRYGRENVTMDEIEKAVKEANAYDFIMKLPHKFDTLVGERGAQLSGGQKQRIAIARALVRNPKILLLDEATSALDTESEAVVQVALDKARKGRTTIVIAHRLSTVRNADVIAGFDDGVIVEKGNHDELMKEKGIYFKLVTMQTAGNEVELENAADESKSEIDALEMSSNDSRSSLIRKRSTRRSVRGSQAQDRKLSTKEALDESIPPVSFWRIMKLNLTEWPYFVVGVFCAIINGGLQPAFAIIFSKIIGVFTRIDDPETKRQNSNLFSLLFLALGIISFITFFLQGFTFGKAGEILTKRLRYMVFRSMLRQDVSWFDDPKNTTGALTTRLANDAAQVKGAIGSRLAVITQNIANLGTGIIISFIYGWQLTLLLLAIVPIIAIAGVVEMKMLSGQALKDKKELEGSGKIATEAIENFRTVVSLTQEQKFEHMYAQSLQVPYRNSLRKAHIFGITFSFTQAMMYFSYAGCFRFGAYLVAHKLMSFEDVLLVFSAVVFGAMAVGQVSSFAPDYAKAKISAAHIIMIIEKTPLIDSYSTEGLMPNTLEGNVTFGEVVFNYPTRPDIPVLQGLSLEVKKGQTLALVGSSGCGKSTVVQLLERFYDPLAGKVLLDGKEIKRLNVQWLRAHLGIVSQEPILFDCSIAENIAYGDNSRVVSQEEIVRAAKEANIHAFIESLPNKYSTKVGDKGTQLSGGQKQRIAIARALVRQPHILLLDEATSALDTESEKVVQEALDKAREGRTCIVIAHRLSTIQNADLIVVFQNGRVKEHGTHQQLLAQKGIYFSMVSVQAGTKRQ

| Compound | Activity [1] | Activity [2] | Activity [3] | IC50 (HepG2) | viability at 20 µM [4] | Activity [5] | Activity [6] | IC50 (NIH3T3) | IC50 (L02) | Activity [7] | Activity [8] | IC50 [9] | further results |
| --- | --- | --- | --- | --- | --- | --- | --- | --- | --- | --- | --- | --- | --- |
| Cl.NCCC[n+]1ccc(/C=C/c2c[nH]c3ccc(F)cc23)cc1.[Br-] | 88.4% | 2.66% | 1.21% | 103 µM | 55.6% | 26.2% | 0.25% | > 600 µM | > 600 µM | 8.72% | 17% | 102 µM | – |
| COc1cccc2c1C(=O)c1c(O)c3c(c(O)c1C2=O)C[C@@](O)(C(=O)CO)C[C@@H]3O[C@H]1C[C@H](N)[C@H](O)[C@H](C)O1.Cl [DOXORUBICIN HYDROCHLORIDE] | – | – | – | 0.67 µM | – | – | – | – | – | – | – | 144 µM | Ratio IC50 [10]: 215.4 |
| O=C(O)CCCc1ccc(N(CCCl)CCCl)cc1 [CHLORAMBUCIL] | 90.9% | 0.01% | 0% | 190 µM | 87.5% | 12.4% | 0.01% | > 600 µM | > 600 µM | 9.08% | 0.05% | 297 µM | – |
| O=C(CCCc1ccc(N(CCCl)CCCl)cc1)NCCC[n+]1ccc(/C=C/c2c[nH]c3ccc(F)cc23)cc1.[Br-] | 85.7% | 0.09% | 0% | 60 µM | 33.5% | 64% | 0.01% | > 600 µM | > 600 µM | 14.2% | 2.38% | 60.5 µM | Drug uptake [11]: Active; Drug uptake [12]: Active; Drug uptake [13]: Active; Activity (HepG2/Adm [14]): Active; Drug uptake [15]: Active; Activity (HepG2/Adm [16]): Active; Drug uptake [17]: Not Active; inhibition (INH) [18]: Active; inhibition (INH) [19]: Active; Activity (HepG2/Adm [20]): Active; inhibition (INH) [21]: Active; Drug uptake [22]: Active |
